The test system of one data set is SW480 cells. Briefly: Cell cycle analysis by flow cytometry. Format: cell-based. Particulars: 0.03, 0.1 or 0.3 μM compared to DMSO control; FIG. 5. The method, then:
FIG. 5: Cell cycle analysis using SW480 cells treated with 0 μM (control using DMSO), 0.03 μM, 0.1 μM or 0.3 μM of compound 22.
To quantify the cellular DNA content, DNA is visualized by staining with propidium iodide (PI), a fluorescent dye which binds to double stranded DNA. To allow PI to enter cells they are permeabilized with Triton-X. The fluorescence intensity per cell, which correlates with its DNA content, is measured by flow cytometry. The G0/G1 peak represents cells in the usual diploid state. Apoptotic cells are characterized through a peak in the FACS histogram below the G0/G1 peak (sub G1) (Nicoletti I et al. J. Immunol. Methods 1991, 139 (2), 271-279):
Since cells in different phases of the cell cycle have a different DNA content this method can also be used for measuring the amount of cells in different stages of the cell cycle. Cells were seeded in 12-well plates at a density 10 fold more than used in 96-well plates in 2 ml growth media. Cells were incubated for one day, until they reached 50-70% confluence. Then they were stimulated with different concentrations of the test compounds, according to the data available from proliferation assays. […]
Cells were measured by flow cytometry 50-150 events/second with a total of 10 000 events using channel FL2-A. Data were analyzed with CellQuest Pro™. Mean values from different repeats were analyzed using GraphPad Prism® 4.03.

The subject of the next data set is HUVEC. Nature of the data set: Cell proliferation assay using crystal violet, HUVEC. The class given is cell-based. Particulars: Homo sapiens. The method, then: (§1) For quantification, cells are treated with crystal violet, a dye that stains proteins. After washing away of excess dye, the remaining crystal violet is dissolved in a sodium citrate solution. The solution is analyzed photometrically at 590 nm. The optical density of this solution depends on the concentration of crystal violet and therefore on the amount of cells. […] To reduce effects of evaporation, only the inner 60 wells of 96-well plates (coated with 0.1% gelatine solution for studies with HUVEC) were used for experiments.
Cells were seeded at a density of 5 000 cells per well in 100 μl growth medium (HUVEC) or 20 000 (HCT116), 15 000 (SW480 and 518A2) or 10 000 (HT29) cells per well in 200 μl growth medium in 55 wells per plate. 5 wells were filled with medium only. Additionally, a 96-well plate with cells in 12 wells and medium in 6 wells was prepared as T0-plate. The next day, additional 98 μl of growth medium were added in every well (only HUVEC).
Cells were treated with 2 μl of the working solution 24 h after seeding. Final compound concentrations in the well were 10 μM for the first round of screening. The final DMSO concentration was 0.5%. […] After finishing the addition of compounds, the T0-plate was stained with crystal violet for giving the cell density at time point zero. Before staining, the growth medium was poured away. Wells were filled with 50 μl crystal violet solution for 10 min. Then the staining solution was washed away with water. Since crystal violet is environmentally hazardous the waste was collected and disposed in an appropriate manner. After air drying of the plates the crystal violet on the cells was dissolved in 100 μl of sodium citrate solution, and the absorption was measured with a plate reader at 590 nm.
Mean values were corrected with the absorption of stained medium and the corrected absorption of T0 cells. Cell growth was calculated relative to DMSO control for data comparison.

The subject of data set [1] is colon carcinoma cell line HCT116p53 wild type. Briefly: Crystal violet assay, HCT116p53wt. Format: cell-based. Particulars: n = 3. The method, then: as §1
Cells were treated with 2 μl of the working solution 24 h after seeding. Final compound concentrations in the well were 10 μM for the first round of screening. The final DMSO concentration was 0.5%. […] After finishing the addition of compounds, the T0-plate was stained with crystal violet for giving the cell density at time point zero. […] After air drying of the plates the crystal violet on the cells was dissolved in 100 μl of sodium citrate solution, and the absorption was measured with a plate reader at 590 nm.
Mean values were corrected with the absorption of stained medium and the corrected absorption of T0 cells. Cell growth was calculated relative to DMSO control for data comparison. IC50 values (50% inhibition of cell growth) were determined with GraphPad Prism® (Version 4.03) using nonlinear regression (sigmoidal dose-response with variable slope). […]

Consider two compounds from US20130123367A1, “VINYLOGOUS CHALCONE DERIVATIVES AND THEIR MEDICAL USE” (MEDIZINISCHE UNIVERSITAT WIEN, priority 2010, published 2013).

Like-named read-outs stand apart in the source and are kept apart here.

In turn, `CCOc1ccccc1C(=O)/C=C/c1ccc2ccccc2c1` [Compound 22, 3-(2-Naphthyl)-1-(2′-ethoxyphenyl)-2-propene-1-one] had a melting point of 96 to 97 °C. Besides, in the data set on SW480 cells, the ““DNA>4N” portion (inhibition of cell division)” value is recorded as “increase” and the ““Sub G1” portion (induction of apoptosis)” value was “increase”.

Turning to `COc1ccccc1/C=C/C=C/C(=O)c1cc(OC)c(OC)c(OC)c1` [Compound 1, 5-(2-Methoxyphenyl)-1-(3′,4′,5′-trimethoxyphenyl)-2,4-pentadiene-1-one], the IC50 in the data set on HUVEC (n = 3, 48 h incubation, read-out: IC50 (nM) HUVEC (converted)) is 340 nM; in the data set with HUVEC (n = 3, read-out: IC50 (nM) HUVEC (Table 2)), 280 nM; in data set [1], 280 nM.
